PubChem BioAssay (NCI)
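Cells were grown in 96-well plates and exposed to each compound for 48 hours at five concentrations; endpoints were interpolated linearly between bracketing concentrations, or set to the highest concentration if not reached. Definition used: TGI = concentration required for complete inhibition of growth.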

Key:
Experiment in all cases: NCI anticancer screen, dose series, 48 h
SN12C renal = system: SN12C renal
SK-OV-3 ovarian = system: SK-OV-3 ovarian
UACC-257 melanoma = system: UACC-257 melanoma
OVCAR-8 ovarian = system: OVCAR-8 ovarian
EKVX NSCLC = system: EKVX NSCLC
MOLT-4 leukemia = system: MOLT-4 leukemia
DU-145 prostate = system: DU-145 prostate
SK-MEL-5 melanoma = system: SK-MEL-5 melanoma
OVCAR-5 ovarian = system: OVCAR-5 ovarian
MDA-MB-435 = system: MDA-MB-435
ACHN renal = system: ACHN renal
OVCAR-4 ovarian = system: OVCAR-4 ovarian
HL-60(TB) leukemia = system: HL-60(TB) leukemia
LOX IMVI melanoma = system: LOX IMVI melanoma
MALME-3M melanoma = system: MALME-3M melanoma
UACC-62 melanoma = system: UACC-62 melanoma
U251 CNS = system: U251 CNS
TK-10 renal = system: TK-10 renal
OVCAR-3 ovarian = system: OVCAR-3 ovarian
HT29 colon = system: HT29 colon
MDA-MB-231 breast = system: MDA-MB-231 breast
MCF7 breast = system: MCF7 breast
MDA-N = system: MDA-N
SNB-75 CNS = system: SNB-75 CNS
SF-295 CNS = system: SF-295 CNS
786-0 renal = system: 786-0 renal
HOP-92 NSCLC = system: HOP-92 NSCLC
SF-539 CNS = system: SF-539 CNS
BT-549 breast = system: BT-549 breast
M14 melanoma = system: M14 melanoma
CCRF-CEM leukemia = system: CCRF-CEM leukemia
HCT-15 colon = system: HCT-15 colon
SK-MEL-28 melanoma = system: SK-MEL-28 melanoma
UO-31 renal = system: UO-31 renal
A498 renal = system: A498 renal
NCI-H226 lung = system: NCI-H226 lung
NCI-H23 lung = system: NCI-H23 lung
K-562 leukemia = system: K-562 leukemia
HS 578T breast = system: HS 578T breast
SK-MEL-2 melanoma = system: SK-MEL-2 melanoma
COLO 205 colon = system: COLO 205 colon
SW-620 colon = system: SW-620 colon
A549 NSCLC = system: A549 NSCLC
NCI-H460 lung = system: NCI-H460 lung
RXF 393 renal = system: RXF 393 renal
SNB-19 CNS = system: SNB-19 CNS
NCI/ADR-RES ovarian = system: NCI/ADR-RES ovarian
IGROV1 ovarian = system: IGROV1 ovarian
RPMI-8226 leukemia = system: RPMI-8226 leukemia
CAKI-1 renal = system: CAKI-1 renal
PC-3 prostate = system: PC-3 prostate
T-47D breast = system: T-47D breast
HCT-116 colon = system: HCT-116 colon
SF-268 CNS = system: SF-268 CNS
HCC-2998 colon = system: HCC-2998 colon
HOP-62 NSCLC = system: HOP-62 NSCLC
KM12 colon = system: KM12 colon
SR leukemia = system: SR leukemia
NCI-H522 lung = system: NCI-H522 lung

`N#Cc1c(=N)cc2c3ccccc3oc3c(C#N)c(N)[nH]c1c32` was tested, and the TGI (SN12C renal) was > 100 µM, the TGI (SK-OV-3 ovarian) was > 100 µM and the TGI (UACC-257 melanoma) was > 100 µM. For the same molecule, the TGI (OVCAR-8 ovarian) was > 100 µM, the TGI (EKVX NSCLC) was > 100 µM and the TGI (MOLT-4 leukemia) was > 100 µM. The TGI (DU-145 prostate) was > 100 µM, the TGI (SK-MEL-5 melanoma) was > 100 µM and the TGI (OVCAR-5 ovarian) was > 100 µM. For the same molecule, the TGI (MDA-MB-435) was > 100 µM, the TGI (ACHN renal) was > 100 µM and the TGI (OVCAR-4 ovarian) was > 100 µM. For the same molecule, the TGI (HL-60(TB) leukemia) was > 100 µM, the TGI (LOX IMVI melanoma) was > 100 µM and the TGI (MALME-3M melanoma) was > 100 µM. The TGI (UACC-62 melanoma) was > 100 µM, the TGI (U251 CNS) was > 100 µM and the TGI (TK-10 renal) was > 100 µM. For the same molecule, the TGI (OVCAR-3 ovarian) was > 100 µM, the TGI (HT29 colon) was > 100 µM and the TGI (MDA-MB-231 breast) was > 100 µM. The TGI (MCF7 breast) was > 100 µM, the TGI (MDA-N) was > 100 µM and the TGI (SNB-75 CNS) was > 100 µM. The TGI (SF-295 CNS) was > 100 µM, the TGI (786-0 renal) was > 100 µM and the TGI (HOP-92 NSCLC) was > 100 µM. The TGI (SF-539 CNS) was > 100 µM, the TGI (BT-549 breast) was > 100 µM and the TGI (M14 melanoma) was > 100 µM. For the same molecule, the TGI (CCRF-CEM leukemia) was > 100 µM, the TGI (HCT-15 colon) was > 100 µM and the TGI (SK-MEL-28 melanoma) was > 100 µM. For the same molecule, the TGI (UO-31 renal) was > 100 µM, the TGI (A498 renal) was > 100 µM and the TGI (NCI-H226 lung) was > 100 µM. The TGI (NCI-H23 lung) was > 100 µM, the TGI (K-562 leukemia) was > 100 µM and the TGI (HS 578T breast) was > 100 µM. The TGI (SK-MEL-2 melanoma) was > 100 µM, the TGI (COLO 205 colon) was > 100 µM and the TGI (SW-620 colon) was > 100 µM. For the same molecule, the TGI (A549 NSCLC) was > 100 µM, the TGI (NCI-H460 lung) was > 100 µM and the TGI (RXF 393 renal) was > 100 µM. For the same molecule, the TGI (SNB-19 CNS) was > 100 µM, the TGI (NCI/ADR-RES ovarian) was > 100 µM and the TGI (IGROV1 ovarian) was > 100 µM. For the same molecule, the TGI (RPMI-8226 leukemia) was > 100 µM, the TGI (CAKI-1 renal) was > 100 µM and the TGI (PC-3 prostate) was > 100 µM. The TGI (T-47D breast) was > 100 µM, the TGI (HCT-116 colon) was > 100 µM and the TGI (SF-268 CNS) was > 100 µM. The TGI (HCC-2998 colon) was > 100 µM, the TGI (HOP-62 NSCLC) was > 100 µM and the TGI (KM12 colon) was > 100 µM.
In the case of `S=C1Nc2cnc3ccccc3c2SC1c1ccccc1` (stereo not given), the TGI (SN12C renal) is reported as > 100 µM, the TGI (SR leukemia) is reported as > 100 µM and the TGI (SK-OV-3 ovarian) is reported as > 100 µM. The TGI (UACC-257 melanoma) was > 100 µM, the TGI (OVCAR-8 ovarian) was > 100 µM and the TGI (EKVX NSCLC) was > 100 µM. The TGI (MOLT-4 leukemia) was > 100 µM, the TGI (DU-145 prostate) was > 100 µM and the TGI (SK-MEL-5 melanoma) was > 100 µM. For the same molecule, the TGI (OVCAR-5 ovarian) was > 100 µM, the TGI (MDA-MB-435) was > 100 µM and the TGI (ACHN renal) was > 100 µM. For the same molecule, the TGI (OVCAR-4 ovarian) was > 100 µM, the TGI (HL-60(TB) leukemia) was > 100 µM and the TGI (LOX IMVI melanoma) was > 100 µM. For the same molecule, the TGI (MALME-3M melanoma) was > 100 µM, the TGI (UACC-62 melanoma) was > 100 µM and the TGI (U251 CNS) was > 100 µM. The TGI (TK-10 renal) was > 100 µM, the TGI (OVCAR-3 ovarian) was > 100 µM and the TGI (HT29 colon) was > 100 µM. The TGI (MDA-MB-231 breast) was > 100 µM, the TGI (MCF7 breast) was > 100 µM and the TGI (MDA-N) was > 100 µM. The TGI (SNB-75 CNS) was > 100 µM, the TGI (SF-295 CNS) was > 100 µM and the TGI (786-0 renal) was > 100 µM. The TGI (BT-549 breast) was > 100 µM, the TGI (M14 melanoma) was > 100 µM and the TGI (HCT-15 colon) was > 100 µM. The TGI (SK-MEL-28 melanoma) was > 100 µM, the TGI (UO-31 renal) was > 100 µM and the TGI (NCI-H226 lung) was > 100 µM. For the same molecule, the TGI (NCI-H23 lung) was > 100 µM, the TGI (K-562 leukemia) was > 100 µM and the TGI (HS 578T breast) was > 100 µM. The TGI (COLO 205 colon) was > 100 µM, the TGI (A549 NSCLC) was > 100 µM and the TGI (NCI-H460 lung) was > 100 µM. The TGI (RXF 393 renal) was 99.4 µM, the TGI (SNB-19 CNS) was > 100 µM and the TGI (NCI/ADR-RES ovarian) was > 100 µM. The TGI (IGROV1 ovarian) was > 100 µM, the TGI (RPMI-8226 leukemia) was > 100 µM and the TGI (CAKI-1 renal) was > 100 µM. For the same molecule, the TGI (NCI-H522 lung) was > 100 µM, the TGI (PC-3 prostate) was > 100 µM and the TGI (T-47D breast) was > 100 µM. The TGI (HCT-116 colon) was > 100 µM, the TGI (SF-268 CNS) was > 100 µM and the TGI (HOP-62 NSCLC) was > 100 µM. The TGI (KM12 colon) was > 100 µM.
In the case of `C/C(=N\Nc1nc2ccccc2o1)c1ccc2ccccc2n1`, the TGI (SN12C renal) is reported as 56.8 µM, the TGI (SR leukemia) is reported as 3.72 µM and the TGI (SK-OV-3 ovarian) is reported as > 100 µM. The TGI (UACC-257 melanoma) was > 100 µM, the TGI (OVCAR-8 ovarian) was 63.5 µM and the TGI (EKVX NSCLC) was 9.23 µM. For the same molecule, the TGI (MOLT-4 leukemia) was > 100 µM, the TGI (DU-145 prostate) was 37.3 µM and the TGI (SK-MEL-5 melanoma) was 14.3 µM. For the same molecule, the TGI (OVCAR-5 ovarian) was > 100 µM, the TGI (MDA-MB-435) was > 100 µM and the TGI (ACHN renal) was 10.6 µM. The TGI (OVCAR-4 ovarian) was 5.59 µM, the TGI (HL-60(TB) leukemia) was 6.47 µM and the TGI (LOX IMVI melanoma) was > 100 µM. For the same molecule, the TGI (MALME-3M melanoma) was 52.5 µM, the TGI (UACC-62 melanoma) was 44.4 µM and the TGI (U251 CNS) was 87.2 µM. The TGI (TK-10 renal) was 68.5 µM, the TGI (OVCAR-3 ovarian) was 3.03 µM and the TGI (HT29 colon) was 95.9 µM. For the same molecule, the TGI (MDA-MB-231 breast) was > 100 µM, the TGI (MCF7 breast) was > 100 µM and the TGI (MDA-N) was > 100 µM. It also gave a TGI (SNB-75 CNS) of 28 µM, a TGI (SF-295 CNS) of 56.5 µM and a TGI (786-0 renal) of 45.7 µM. The TGI (SF-539 CNS) was > 100 µM, the TGI (BT-549 breast) was > 100 µM and the TGI (M14 melanoma) was > 100 µM. The TGI (CCRF-CEM leukemia) was 5.77 µM, the TGI (HCT-15 colon) was 59.9 µM and the TGI (SK-MEL-28 melanoma) was > 100 µM. It also gave a TGI (UO-31 renal) of 14.4 µM, a TGI (A498 renal) of 8.64 µM and a TGI (NCI-H23 lung) of 70.7 µM. For the same molecule, the TGI (K-562 leukemia) was > 100 µM, the TGI (HS 578T breast) was > 100 µM and the TGI (SK-MEL-2 melanoma) was 15.2 µM. For the same molecule, the TGI (COLO 205 colon) was > 100 µM, the TGI (SW-620 colon) was > 100 µM and the TGI (A549 NSCLC) was > 100 µM. For the same molecule, the TGI (NCI-H460 lung) was 30.6 µM, the TGI (RXF 393 renal) was 57.5 µM and the TGI (SNB-19 CNS) was > 100 µM. The TGI (NCI/ADR-RES ovarian) was 26.5 µM, the TGI (IGROV1 ovarian) was 5.32 µM and the TGI (RPMI-8226 leukemia) was 6.41 µM. It also gave a TGI (CAKI-1 renal) of 3.93 µM, a TGI (NCI-H522 lung) of 5.83 µM and a TGI (PC-3 prostate) of 4.94 µM. For the same molecule, the TGI (T-47D breast) was 3.87 µM, the TGI (HCT-116 colon) was 20.1 µM and the TGI (SF-268 CNS) was 49.2 µM. The TGI (HOP-62 NSCLC) was 58.7 µM and the TGI (KM12 colon) was > 100 µM.
